# Measured values: ChEMBL document CHEMBL4507320, “Data for DCP probe NVS-MALT1” (2021)
# What was measured:
# Conditions in all cases: Compound concentration 1000.0 nM
# [1] = system: Phosphatidylinositol 4,5-bisphosphate 3-kinase catalytic subunit alpha isoform (Homo sapiens), P42336 [H1047Y]
# [2] = target: MAP kinase-activated protein kinase 2 (Homo sapiens) (UniProt P49137)
# [3] = target: Serine/threonine-protein kinase haspin (Homo sapiens) (UniProt Q8TF76)
# [4] = target: Casein kinase I isoform gamma-3 (Homo sapiens) (UniProt Q9Y6M4)
# [5] = target: Dual specificity mitogen-activated protein kinase kinase 1 (Homo sapiens) (UniProt Q02750)
# [6] = target: Serine/threonine-protein kinase WNK1 (Homo sapiens) (UniProt Q9H4A3)
# [7] = target: Mitogen-activated protein kinase kinase kinase 9 (Homo sapiens) (UniProt P80192)
# [8] = target: Tyrosine-protein kinase ABL2 (Homo sapiens) (UniProt P42684)
# [9] = system: Mast/stem cell growth factor receptor Kit (Homo sapiens), P10721 [V559D,T670I]
# [10] = target: Vascular endothelial growth factor receptor 1 (Homo sapiens) (UniProt P17948)
# [11] = target: Dual specificity tyrosine-phosphorylation-regulated kinase 1A (Homo sapiens) (UniProt Q13627)
# [12] = target: Ankyrin repeat and protein kinase domain-containing protein 1 (Homo sapiens) (UniProt Q8NFD2)
# [13] = target: Ribosomal protein S6 kinase alpha-1 (Homo sapiens) (UniProt Q15418)
# [14] = target: Mitogen-activated protein kinase 11 (Homo sapiens) (UniProt Q15759)
# [15] = target: Tyrosine-protein kinase Yes (Homo sapiens) (UniProt P07947)
# [16] = target: Rho-associated protein kinase 1 (Homo sapiens) (UniProt Q13464)
# [17] = target: cAMP-dependent protein kinase catalytic subunit beta (Homo sapiens) (UniProt P22694)
# [18] = system: Receptor-type tyrosine-protein kinase FLT3 (Homo sapiens), P36888 [D835H]
# [19] = target: Serine/threonine-protein kinase Sgk2 (Homo sapiens) (UniProt Q9HBY8)
# [20] = target: Tyrosine-protein kinase HCK (Homo sapiens) (UniProt P08631)
# [21] = target: Serine/threonine-protein kinase N1 (Homo sapiens) (UniProt Q16512)
# [22] = target: Ribosomal protein S6 kinase alpha-5 (Homo sapiens) (UniProt O75582)
# [23] = target: Ephrin type-B receptor 6 (Homo sapiens) (UniProt O15197)
# [24] = target: Calcium/calmodulin-dependent protein kinase type IV (Homo sapiens) (UniProt Q16566)
# [25] = target: Interleukin-1 receptor-associated kinase 4 (Homo sapiens) (UniProt Q9NWZ3)
# [26] = target: Mitogen-activated protein kinase 13 (Homo sapiens) (UniProt O15264)
# [27] = target: Dual specificity mitogen-activated protein kinase kinase 7 (Homo sapiens) (UniProt O14733)
# [28] = target: Casein kinase II subunit alpha' (Homo sapiens) (UniProt P19784)
# [29] = target: Casein kinase I isoform gamma-1 (Homo sapiens) (UniProt Q9HCP0)
# [30] = target: Receptor-type tyrosine-protein kinase FLT3 (Homo sapiens, UniProt P36888)
# [31] = system: Tyrosine-protein kinase ABL1 (Homo sapiens), P00519 [H396P]
# [32] = target: Ribosomal protein S6 kinase alpha-3 (Homo sapiens) (UniProt P51812)
# [33] = target: Serine/threonine-protein kinase DCLK2 (Homo sapiens) (UniProt Q8N568)
# [34] = target: Epithelial discoidin domain-containing receptor 1 (Homo sapiens) (UniProt Q08345)
# [35] = target: Proto-oncogene tyrosine-protein kinase receptor Ret (Homo sapiens) (UniProt P07949)
# [36] = target: Dual specificity mitogen-activated protein kinase kinase 4 (Homo sapiens) (UniProt P45985)
# [37] = target: Serine/threonine-protein kinase N2 (Homo sapiens) (UniProt Q16513)
# [38] = target: Serine/threonine-protein kinase Nek7 (Homo sapiens) (UniProt Q8TDX7)
# [39] = target: Protein kinase C eta type (Homo sapiens) (UniProt P24723)
# [40] = target: Serine/threonine-protein kinase MRCK beta (Homo sapiens) (UniProt Q9Y5S2)
# [41] = target: Tyrosine-protein kinase Fyn (Homo sapiens) (UniProt P06241)
# [42] = target: Microtubule-associated serine/threonine-protein kinase 1 (Homo sapiens) (UniProt Q9Y2H9)
# [43] = target: Serine/threonine-protein kinase OSR1 (Homo sapiens) (UniProt O95747)
# [44] = system: Tyrosine-protein kinase ABL1 (Homo sapiens), P00519 [F317L]
# [45] = target: Serine/threonine-protein kinase PAK 6 (Homo sapiens) (UniProt Q9NQU5)
# Serine/threonine-protein kinase DCLK2 (Homo sapiens), sequence (Q8N568 whole entry, the tested form may be a part): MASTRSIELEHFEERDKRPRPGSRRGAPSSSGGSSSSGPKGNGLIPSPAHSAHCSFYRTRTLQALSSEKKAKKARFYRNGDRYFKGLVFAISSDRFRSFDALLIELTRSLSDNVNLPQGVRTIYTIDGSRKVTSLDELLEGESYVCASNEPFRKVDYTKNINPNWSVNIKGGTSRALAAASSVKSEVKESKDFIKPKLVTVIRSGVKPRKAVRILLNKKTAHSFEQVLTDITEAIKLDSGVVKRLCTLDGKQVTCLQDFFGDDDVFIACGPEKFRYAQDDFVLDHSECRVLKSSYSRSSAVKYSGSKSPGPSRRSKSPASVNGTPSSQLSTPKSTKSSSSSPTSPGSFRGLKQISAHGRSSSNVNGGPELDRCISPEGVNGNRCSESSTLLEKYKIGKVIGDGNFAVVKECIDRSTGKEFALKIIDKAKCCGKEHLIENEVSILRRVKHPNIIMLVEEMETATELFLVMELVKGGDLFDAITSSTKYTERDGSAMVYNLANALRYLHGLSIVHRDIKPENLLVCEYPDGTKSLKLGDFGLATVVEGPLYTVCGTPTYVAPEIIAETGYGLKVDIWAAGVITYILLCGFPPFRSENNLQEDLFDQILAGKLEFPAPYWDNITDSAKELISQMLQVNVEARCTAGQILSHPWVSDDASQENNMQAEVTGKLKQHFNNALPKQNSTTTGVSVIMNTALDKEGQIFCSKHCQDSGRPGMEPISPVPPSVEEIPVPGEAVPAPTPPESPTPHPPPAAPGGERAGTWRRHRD
# Tyrosine-protein kinase Fyn (Homo sapiens), sequence (P06241 2-537 limits assumed): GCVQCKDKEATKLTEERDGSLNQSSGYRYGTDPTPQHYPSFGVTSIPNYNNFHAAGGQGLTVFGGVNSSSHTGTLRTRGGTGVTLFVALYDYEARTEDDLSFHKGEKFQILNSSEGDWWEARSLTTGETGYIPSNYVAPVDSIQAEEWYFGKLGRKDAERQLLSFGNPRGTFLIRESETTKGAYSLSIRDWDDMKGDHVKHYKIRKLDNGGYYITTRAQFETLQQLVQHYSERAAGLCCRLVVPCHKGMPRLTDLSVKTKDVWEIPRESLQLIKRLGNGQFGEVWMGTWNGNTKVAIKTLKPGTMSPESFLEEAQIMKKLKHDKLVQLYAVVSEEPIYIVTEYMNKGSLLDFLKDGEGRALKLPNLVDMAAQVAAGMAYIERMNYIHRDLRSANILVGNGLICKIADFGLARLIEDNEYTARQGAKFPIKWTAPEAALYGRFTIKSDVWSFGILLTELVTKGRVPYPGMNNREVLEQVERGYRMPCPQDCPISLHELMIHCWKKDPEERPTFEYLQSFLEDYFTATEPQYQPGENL
# Mitogen-activated protein kinase 13 (Homo sapiens), sequence (O15264 whole entry): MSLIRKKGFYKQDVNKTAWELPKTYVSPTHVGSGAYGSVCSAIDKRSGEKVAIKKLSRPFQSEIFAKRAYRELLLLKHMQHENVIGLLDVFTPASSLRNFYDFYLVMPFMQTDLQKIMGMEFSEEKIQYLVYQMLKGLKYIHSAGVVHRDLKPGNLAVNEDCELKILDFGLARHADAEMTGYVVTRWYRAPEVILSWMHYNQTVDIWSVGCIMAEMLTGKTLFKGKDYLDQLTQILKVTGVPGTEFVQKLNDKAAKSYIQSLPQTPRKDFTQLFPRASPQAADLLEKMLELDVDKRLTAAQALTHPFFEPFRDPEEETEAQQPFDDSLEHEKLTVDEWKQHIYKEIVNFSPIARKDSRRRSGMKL
# Tyrosine-protein kinase HCK (Homo sapiens), sequence (P08631 2-526 limits assumed): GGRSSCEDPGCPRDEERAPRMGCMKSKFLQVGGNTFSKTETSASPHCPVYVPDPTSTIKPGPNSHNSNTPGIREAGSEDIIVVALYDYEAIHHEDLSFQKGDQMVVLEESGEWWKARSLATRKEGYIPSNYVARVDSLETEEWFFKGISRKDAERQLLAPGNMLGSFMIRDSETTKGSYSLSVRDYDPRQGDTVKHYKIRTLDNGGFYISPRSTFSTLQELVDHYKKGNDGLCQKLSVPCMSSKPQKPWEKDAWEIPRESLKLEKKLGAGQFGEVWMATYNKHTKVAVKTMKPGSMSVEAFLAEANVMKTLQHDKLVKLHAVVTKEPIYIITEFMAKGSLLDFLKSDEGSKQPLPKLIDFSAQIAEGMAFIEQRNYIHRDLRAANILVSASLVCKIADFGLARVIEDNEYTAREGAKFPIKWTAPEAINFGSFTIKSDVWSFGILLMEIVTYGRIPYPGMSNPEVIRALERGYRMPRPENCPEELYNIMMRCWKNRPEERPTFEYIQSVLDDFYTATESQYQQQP
# Dual specificity mitogen-activated protein kinase kinase 7 (Homo sapiens), sequence (O14733 whole entry): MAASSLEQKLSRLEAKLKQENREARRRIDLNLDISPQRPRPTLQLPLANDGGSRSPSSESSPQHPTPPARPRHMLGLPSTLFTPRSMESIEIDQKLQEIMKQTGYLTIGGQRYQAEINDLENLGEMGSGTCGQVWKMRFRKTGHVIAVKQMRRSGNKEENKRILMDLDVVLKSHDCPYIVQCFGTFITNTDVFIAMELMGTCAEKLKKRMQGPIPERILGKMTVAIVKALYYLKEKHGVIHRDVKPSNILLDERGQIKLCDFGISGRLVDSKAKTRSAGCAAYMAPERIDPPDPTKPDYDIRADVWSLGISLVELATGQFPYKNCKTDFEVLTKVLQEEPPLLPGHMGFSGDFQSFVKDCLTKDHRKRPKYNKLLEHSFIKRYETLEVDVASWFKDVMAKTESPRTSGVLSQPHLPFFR
# Serine/threonine-protein kinase N2 (Homo sapiens), sequence (Q16513 whole entry, looked up): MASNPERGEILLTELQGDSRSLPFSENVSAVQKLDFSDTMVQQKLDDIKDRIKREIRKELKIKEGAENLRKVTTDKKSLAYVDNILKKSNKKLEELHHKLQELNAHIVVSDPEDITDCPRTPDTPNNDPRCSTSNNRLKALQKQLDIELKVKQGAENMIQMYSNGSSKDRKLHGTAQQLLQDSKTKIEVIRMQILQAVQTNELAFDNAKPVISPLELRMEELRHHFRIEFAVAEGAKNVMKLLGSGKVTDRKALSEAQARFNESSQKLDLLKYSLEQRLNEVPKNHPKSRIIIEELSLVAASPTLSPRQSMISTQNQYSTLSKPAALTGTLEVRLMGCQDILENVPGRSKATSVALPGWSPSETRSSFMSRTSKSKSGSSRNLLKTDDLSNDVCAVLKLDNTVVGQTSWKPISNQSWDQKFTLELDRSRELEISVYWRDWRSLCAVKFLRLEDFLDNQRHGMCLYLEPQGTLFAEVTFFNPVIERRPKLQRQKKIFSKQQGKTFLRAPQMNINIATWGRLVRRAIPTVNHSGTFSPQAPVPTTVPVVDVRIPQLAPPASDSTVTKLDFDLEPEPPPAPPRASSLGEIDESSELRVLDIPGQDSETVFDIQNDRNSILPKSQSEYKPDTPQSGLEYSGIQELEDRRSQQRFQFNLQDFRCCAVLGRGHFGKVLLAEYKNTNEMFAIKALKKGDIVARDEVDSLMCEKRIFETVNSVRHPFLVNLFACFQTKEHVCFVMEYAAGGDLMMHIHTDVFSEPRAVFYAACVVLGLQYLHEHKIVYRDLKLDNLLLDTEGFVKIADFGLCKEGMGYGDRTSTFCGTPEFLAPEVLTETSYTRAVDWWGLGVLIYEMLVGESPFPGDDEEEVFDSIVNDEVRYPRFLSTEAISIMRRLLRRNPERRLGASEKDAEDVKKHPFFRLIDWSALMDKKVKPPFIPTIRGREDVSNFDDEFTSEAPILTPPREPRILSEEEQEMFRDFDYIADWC
# Tyrosine-protein kinase ABL2 (Homo sapiens), sequence (P42684 whole entry): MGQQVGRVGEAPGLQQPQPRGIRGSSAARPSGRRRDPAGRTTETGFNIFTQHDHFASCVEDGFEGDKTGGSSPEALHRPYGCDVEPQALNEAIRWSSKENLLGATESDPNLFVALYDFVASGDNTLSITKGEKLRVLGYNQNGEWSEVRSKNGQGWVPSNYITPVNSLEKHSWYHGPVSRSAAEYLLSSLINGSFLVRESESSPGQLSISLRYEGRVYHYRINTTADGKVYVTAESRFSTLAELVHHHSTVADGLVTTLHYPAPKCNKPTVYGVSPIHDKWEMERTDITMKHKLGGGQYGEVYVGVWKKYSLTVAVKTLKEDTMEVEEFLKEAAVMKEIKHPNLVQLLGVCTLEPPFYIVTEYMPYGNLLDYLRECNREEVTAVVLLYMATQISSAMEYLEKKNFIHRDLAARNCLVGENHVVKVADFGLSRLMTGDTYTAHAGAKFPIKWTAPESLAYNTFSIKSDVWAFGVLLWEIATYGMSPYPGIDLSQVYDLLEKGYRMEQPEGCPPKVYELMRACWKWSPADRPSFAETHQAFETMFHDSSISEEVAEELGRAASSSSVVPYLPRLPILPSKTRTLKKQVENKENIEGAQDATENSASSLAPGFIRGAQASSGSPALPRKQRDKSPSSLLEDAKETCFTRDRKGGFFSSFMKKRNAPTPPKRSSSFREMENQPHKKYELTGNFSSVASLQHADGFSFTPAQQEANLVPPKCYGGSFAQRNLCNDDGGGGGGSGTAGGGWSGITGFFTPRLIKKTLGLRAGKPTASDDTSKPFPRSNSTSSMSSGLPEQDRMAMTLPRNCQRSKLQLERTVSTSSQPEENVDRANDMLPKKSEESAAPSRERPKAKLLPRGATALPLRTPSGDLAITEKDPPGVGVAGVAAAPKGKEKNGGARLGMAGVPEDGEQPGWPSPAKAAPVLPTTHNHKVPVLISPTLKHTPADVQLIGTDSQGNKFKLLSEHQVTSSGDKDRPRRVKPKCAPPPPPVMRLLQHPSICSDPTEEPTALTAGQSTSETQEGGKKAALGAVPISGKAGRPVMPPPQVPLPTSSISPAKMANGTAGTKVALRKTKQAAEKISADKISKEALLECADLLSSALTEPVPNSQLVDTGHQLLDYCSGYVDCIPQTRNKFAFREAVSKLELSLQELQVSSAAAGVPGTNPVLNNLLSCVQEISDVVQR
structure (smiles),measurement,setting,value
CO[C@@H](C)c1c(Nc2ccc([C@@H](N(C)C(=O)C3CCS(=O)(=O)CC3)C(F)(F)F)cc2)cnc2cc(Cl)nn12 [NVS-MALT1-C],residual activity,[1],52%
same,residual activity,[2],100%
same,residual activity,[3],100%
same,residual activity,[4],71%
same,residual activity,[5],100%
same,residual activity,[6],98%
same,residual activity,[7],81%
same,residual activity,[8],84%
same,residual activity,[9],82%
same,residual activity,[10],85%
same,residual activity,[11],92%
same,residual activity,[12],100%
same,residual activity,[13],65%
same,residual activity,[14],86%
same,residual activity,[15],100%
same,residual activity,[16],100%
same,residual activity,[17],89%
same,residual activity,[18],63%
same,residual activity,[19],99%
same,residual activity,[20],100%
same,residual activity,[21],99%
same,residual activity,[22],70%
same,residual activity,[23],100%
same,residual activity,[24],100%
same,residual activity,[25],89%
same,residual activity,[26],100%
same,residual activity,[27],100%
same,residual activity,[28],100%
same,residual activity,[29],99%
same,residual activity,[30],94%
same,residual activity,[31],96%
same,residual activity,[32],100%
same,residual activity,[33],95%
same,residual activity,[34],100%
same,residual activity,[35],91%
same,residual activity,[36],100%
same,residual activity,[37],88%
same,residual activity,[38],91%
same,residual activity,[39],78%
same,residual activity,[40],89%
same,residual activity,[41],95%
same,residual activity,[42],29%
same,residual activity,[43],100%
same,residual activity,[44],100%
same,residual activity,[45],100%
CO[C@@H](C)c1c(Nc2ccc([C@H](N(C)C(=O)C3CCS(=O)(=O)CC3)C(F)(F)F)cc2)cnc2cc(Cl)nn12 [NVS-MALT1],residual activity,[1],62%
same,residual activity,[2],90%
same,residual activity,[3],100%
same,residual activity,[4],72%
same,residual activity,[5],100%
same,residual activity,[6],100%
same,residual activity,[7],100%
same,residual activity,[8],85%
same,residual activity,[9],86%
same,residual activity,[10],82%
same,residual activity,[11],75%
same,residual activity,[12],100%
same,residual activity,[13],71%
same,residual activity,[14],79%
same,residual activity,[15],99%
same,residual activity,[16],100%
same,residual activity,[17],81%
same,residual activity,[18],75%
same,residual activity,[19],91%
same,residual activity,[20],100%
same,residual activity,[21],100%
same,residual activity,[22],88%
same,residual activity,[23],100%
same,residual activity,[24],100%
same,residual activity,[25],88%
same,residual activity,[26],100%
same,residual activity,[27],100%
same,residual activity,[28],100%
same,residual activity,[29],100%
same,residual activity,[30],100%
same,residual activity,[31],95%
same,residual activity,[32],87%
same,residual activity,[33],90%
same,residual activity,[34],99%
same,residual activity,[35],91%
same,residual activity,[36],100%
same,residual activity,[37],100%
same,residual activity,[38],75%
same,residual activity,[39],86%
same,residual activity,[40],81%
same,residual activity,[41],100%
same,residual activity,[42],43%
same,residual activity,[43],100%
same,residual activity,[44],100%
same,residual activity,[45],100%
